Literature values in patent US20070275095A1, “TREATMENT OF INFLAMMATORY, AUTOIMMUNE, OR OTHER DISORDERS, USING AGENTS THAT REDUCE THE SEQUESTERING OF ZINC BY CALPROTECTIN” (priority 2005, published 2007).

What was measured:
[1] = clinical trials reviewed in Kidd 2002, Kern et al 2004, Esch et al 2004, Sturmey 2005
[2] = test system: tumor necrosis factor (TNF); details: same literature reports
[3] = test system: calprotectin; details: zinc binding not measured directly; apoptosis measured (Yui et al 1998 and 2003, Mikami et al 1999)
[4] = test system: calprotectin; details: Oyama et al 1997
[5] = test system: neutrophil cells; details: Oyama et al 1997

Compound | clinical trial outcome in autism [1] | inhibition of tumor necrosis factor (TNF) [2] | inhibition of zinc binding by calprotectin [3] | binding to calprotectin molecules in neutrophils [4] | suppression of calprotectin release by neutrophils [5]
secretin | mainly negative results | – | – | – | –
O=C1N[C@@H]2C(=C[C@H](O)[C@@H](O)[C@H]2O)c2cc3c(c(O)c21)OCO3 [lycoricidinol] | – | appear to inhibit | appear to inhibit zinc binding by calprotectin, to some extent | – | –
O[C@H]1[C@H]2c3cc4c(cc3CN3CCC(=C[C@@H]1O)[C@H]23)OCO4 [lycorine] | – | appear to inhibit | appear to inhibit zinc binding by calprotectin, to some extent | – | –
CC(C)c1ccc2oc3nc(N)c(C(=O)O)cc3c(=O)c2c1 [amlexanox] | – | – | – | bind to calprotectin molecules contained in the neutrophils | impedes and suppresses the release of calprotectin by the neutrophils
